In general, IC50 refers to the concentration needed to halve the response being measured.

The results in this text go back to US10596184B2, “Aza-heteroaryl compounds as PI3K-gamma inhibitors” (Incyte Corporation, priority 2015, dated 2020).

For the experiment, the system named is Phosphorylated Ribosomal Protein S6 (RPS6) in THP-1 cells. As to the kind of experiment: THP-1 RPS6 ELISA Assay. Type of experiment: cell-based, Human. To be noted: 2 hours with compound, then 10 nM MCP-1 for 15 minutes, read-out: THP p-RPS6 ELISA IC50. The method, then:
To measure the Phosphorylated Ribosomal Protein S6 (RPS6) in cell lysates, THP-1 cells (Human Acute Monocytic Leukemia) are purchased from ATCC (Manassas, Va.) and maintained in RPMI with 10% FBS (Gibco/Life Technologies, Carlsbad, Calif.). For the assay, THP-1 cells are serum starved overnight in RPMI, then plated in RPMI (2×10^5 cells/well in 90 μL) into 96-well flat-bottom tissue culture treated plates (Corning, Corning, N.Y.), in the presence or absence of a concentration range of test compounds. Covered plates are incubated for 2 hours at 37° C., 5% CO2 then treated with or without 10 nM MCP-1 (MYBioSource, San Diego, Calif.) for 15 minutes at 37° C., 5% CO2. Plates are centrifuged at 1600 RPM and supernatants are removed. Cells are lysed in Lysis Buffer (Cell Signaling, Danvers, Mass.) with Protease Inhibitor (Calbiochem/EMD, Germany), PMSF (Sigma, St Louis Mo.), HALTS (Thermo Fisher, Rockford, Ill.) for 30 min on wet ice. Cell lysates are frozen at −80° C. before testing. The lysates are tested in the Human/Mouse/Rat Phospho-RPS6 ELISA (R&D Systems, Inc. Minn, Minn.). The plate is measured using a microplate reader (SpectraMax M5—Molecular Devices, LLC Sunnyvale, Calif.) set to 450 nm with a wavelength correction of 540. […]

Read-outs that look alike come from different tables or passages of the source.

`CCS(=O)(=O)Nc1cncc(-c2ccc3nc(-c4nc(C)c(C)[nH]4)oc3c2)c1` [Example 63, N-(5-(2-(4,5-Dimethyl-1H-imidazol-2-yl)benzo[d]oxazol-6-yl)pyridin-3-yl)ethanesulfonamide bis(trifluoroacetate)]: the IC50 (Homo sapiens) is below 5 µM. Regarding `CN1CCN(S(=O)(=O)Nc2cncc(-c3ccc4nc(-c5nc6ccccc6[nH]5)oc4c3)c2)CC1` [Example 31, N-(5-(2-(1H-Benzofdlimidazol-2-yl)benzo[d]oxazol-6-yl)pyridin-3-yl)-4-methylpiperazine-1-sulfonamide], the IC50 is below 1 µM.
